PubChem BioAssay (NCI)
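48-hour exposure; five concentrations; linearly interpolated endpoints. GI50 marks 50% less growth. TGI: concentration producing complete growth inhibition.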

Tests used:
Test in all cases: inhibition of tumour cell growth, NCI panel, 48 h
NCI-H460 lung = tested on: NCI-H460 lung
COLO 205 colon = tested on: COLO 205 colon
TK-10 renal = tested on: TK-10 renal
MOLT-4 leukemia = tested on: MOLT-4 leukemia
ACHN renal = tested on: ACHN renal
RPMI-8226 leukemia = tested on: RPMI-8226 leukemia
MCF7 breast = tested on: MCF7 breast
SF-295 CNS = tested on: SF-295 CNS
OVCAR-8 ovarian = tested on: OVCAR-8 ovarian
OVCAR-4 ovarian = tested on: OVCAR-4 ovarian

Row | SMILES | GI50 (NCI-H460 lung) [µM] | TGI (NCI-H460 lung) [µM] | GI50 (COLO 205 colon) [µM] | TGI (COLO 205 colon) [µM] | GI50 (TK-10 renal) [µM] | TGI (TK-10 renal) [µM] | GI50 (MOLT-4 leukemia) [µM] | TGI (MOLT-4 leukemia) [µM] | GI50 (ACHN renal) [µM] | TGI (ACHN renal) [µM] | GI50 (RPMI-8226 leukemia) [µM] | TGI (RPMI-8226 leukemia) [µM] | GI50 (MCF7 breast) [µM] | TGI (MCF7 breast) [µM] | GI50 (SF-295 CNS) [µM] | TGI (SF-295 CNS) [µM] | GI50 (OVCAR-8 ovarian) [µM] | TGI (OVCAR-8 ovarian) [µM] | GI50 (OVCAR-4 ovarian) [µM] | TGI (OVCAR-4 ovarian) [µM]
1 | Fc1c[c-]c(-c2ccccn2)c(F)c1.[CH3-].[Pt+2].c1ccc([PH+](c2ccccc2)c2ccccn2)cc1 | 1.63 | 4.91 | 1.77 | 5.72 | 3.59 | 12.9 | 1.04 | > 100 | 1.2 | 2.49 | 0.412 | 4.44 | 1.22 | 3.23 | 4.91 | 62.5 | 2.25 | > 100 | 1.57 | 7.06
2 | COc1ccc2c(O)c(/C=C3\N=Nc4ncccc43)oc2c1C[C@H]1CCNC[C@H]1F | 0.388 | 1.8 | 0.24 | 0.806 | 0.479 | 9.13 | 0.294 | 1.62 | 0.27 | 8.18 | 0.286 | 1.06 | 0.207 | 9.18 | 0.343 | 11.9 | 0.477 | 12.3 | 0.566 | 6.84
3 | COc1cc(/C=C/C(=O)NC[C@]2(O)CCC3C4CCc5cc(O)ccc5C4CCC32C)ccc1O (some centres undefined) | 9.47 | > 100 | 13.4 | 64.5 | 2.76 | 14.4 | 3.9 | 32.7 | 9.05 | > 100 | 3.16 | 16.7 | 13.4 | > 100 | 6.71 | > 100 | 23.8 | > 100 | 7.49 | > 100
4 | C[C@@H]1[C@H]2[C@H](C=C3[C@@H]4CC[C@H]5Cc6nc7c(nc6C[C@]5(C)[C@H]4C[C@@H](O)[C@@]32C)C[C@@H]2CC[C@H]3C4=C[C@@H]5O[C@@]6(CC[C@](C)(CO)O6)[C@@H](C)[C@@]5(O)[C@@]4(C)[C@H](O)C[C@@H]3[C@@]2(C)C7)O[C@]12CCC(C)(C)O2 | 0.466 | 4.95 | 0.292 | 0.926 | 13.3 | 72.5 | 0.259 | 0.857 | 0.843 | > 100 | 0.0819 | 0.723 | 0.49 | 15.3 | 0.0698 | 0.259 | 10.1 | > 100 | 7.05 | > 69.7
5 | COc1cccc2c1nc1cccc(OC)c1[n+]2[O-] | 2.76 | 10.7 | 10.9 | 26.7 | 16.3 | 47.6 | 0.46 | 2.62 | 2.2 | 9.96 | 7.69 | 31.4 | 0.941 | 12.9 | 2.11 | 7.96 | 4.4 | 25 | 4.16 | 20.9
6 | COc1cc2cn3c4ccc(O)cc4nc(N)c3c2cc1OC | 0.289 | 2.36 | 0.342 | 6.6 | 1.54 | 9.55 | 0.483 | 4.33 | 0.191 | 2.77 | 1.25 | 8.32 | 0.174 | 4.15 | 0.265 | 11.5 | 0.773 | 12.6 | 0.651 | 12.4
7 | Cc1cc(O)c(C2=NN(c3ccc(S(N)(=O)=O)cc3)C(c3ccccc3O)C2)cc1Cl (centres undefined) | 2.07 | 4.38 | 1.86 | 3.41 | 3.03 | 7.32 | 3.11 | 12.2 | 2.58 | 8.55 | 2.24 | 10.1 | 2.25 | 6.12 | 1.68 | 3.5 | 2.8 | 8.54 | 2.89 | 9.58
8 | C[n+]1c2cc(N)ccc2cc2ccc(N)cc21 (tested in a mixture with another compound) | 0.269 | – | 0.148 | 1.3 | 1.04 | 7.49 | 0.209 | 0.746 | 0.304 | 3.59 | 0.345 | 1.68 | 0.372 | 17.9 | 0.809 | 4.62 | 0.377 | 2.23 | 0.646 | 2.68
9 | CCc1nc(-n2c(CC)nc3ccccc3c2=O)nc(N)c1-c1ccc(Cl)cc1 | 14 | > 100 | 19.3 | > 79.3 | 35.6 | > 100 | 73.3 | > 100 | > 27.1 | > 100 | 1.24 | > 32 | > 50.9 | > 100 | 12.6 | > 100 | 6.65 | > 100 | > 100 | > 100
10 | Clc1nc(Cl)c2ncn(C/C=C/Cn3cnc4c(Cl)nc(Cl)nc43)c2n1 | 20 | 40.7 | 15.1 | 35.5 | 21.7 | 39 | 17 | 37.4 | 18.2 | 32.2 | 10.4 | 25.8 | 6.69 | 21.6 | 16.8 | 31.3 | 6.11 | 21 | 20 | 34.8
11 | Cc1c2cnccc2c(C)c2c1c1cc(C(=O)O)ccc1n2C | 0.874 | 8.46 | 0.594 | 4.02 | 1.79 | 8.96 | 0.53 | 3.38 | 0.464 | 5.27 | 1.26 | 5.66 | 1.02 | 13.6 | 1.16 | 6.65 | 0.675 | 8.3 | 1.43 | 6.59
